{"source": "paper PMC3388080", "about": "(PLoS ONE, 2012)", "key": {"Male Wistar rats": {"test_system": "Male Wistar rats", "assay": "Spontaneous locomotor activity during the active phase", "assay_type": "in vivo, rat", "details": "for spontaneous LMA: vehicle 6097±536; for effect on spontaneous LMA (in words): 3, 10, 30 mg/kg ip at ZT15, almorexant significant only at 30 mg/kg, SB-334867 at 10 and 30 mg/kg", "protocol": "Locomotor activity (LMA) was evaluated at F. Hoffmann-La Roche as described previously. Male Wistar rats were placed for 2 weeks in a 12 h light/12 h dark cycle with light onset at 22∶00 (ZT0). […] Spontaneous LMA was recorded for a period of 30 min. At the end of the experiment, the brain and plasma were collected for determination of the drug exposure and brain/plasma concentration ratio.\nHorizontal locomotor activity was recorded for a period of 30 min. Numbers on the X-axes represent intraperitoneal doses in mg/kg.***p<0.001, **p<0.01, *p<0.05 vs. Veh (one-way ANOVA followed by Dunnett’s analysis). All data are mean±SEM (n = 8 per group)."}, "[1]": {"assay": "Plasma protein binding (free fraction), human plasma", "protocol": "(§1) Pharmacokinetic analyses were performed at F. Hoffmann-La Roche as described in supporting Materials and Methods S1."}, "[2]": {"assay": "Stability in human plasma", "protocol": "as §1"}, "Stability in rat plasma": {"assay": "Stability in rat plasma", "protocol": "as §1"}, "[3]": {"assay": "Plasma protein binding (free fraction), rat plasma", "protocol": "as §1\n(§2) Cmax, maximum concentration; Tmax, time at which maximum concentration was observed; AUC, area under the plasma concentration vs. time curve; CL, clearance; Vss, volume of distribution at steady state; T1/2, terminal half-life; F, bioavailability; Fu, Fraction unbound. Plasma values are mean, n=2."}, "[4]": {"assay": "Pharmacokinetics after single i.v. or p.o. bolus in Wistar rat", "protocol": "as §1, §2"}, "[5]": {"details": "i.v., dose 2.40 / 5.18 / 12.10 mg/kg"}, "[6]": {"details": "p.o., dose 6.35 / 8.75 / 18.16 mg/kg"}}, "data": [{"smiles": "Cc1nc2ccc(NC(=O)Nc3ccnc4cccnc34)cc2o1.Cl", "note": "[SB-334867, 1-(2-methylbenzoxazol-6-yl)-3-[1], [5]naphthyridin-4-yl-urea hydrochloride]", "values": [{"measurement": "spontaneous LMA", "setting": "Male Wistar rats; 10 mg/kg ip at ZT15, 30 min recording", "result": "3509±383"}, {"measurement": "spontaneous LMA", "setting": "Male Wistar rats; 30 mg/kg ip at ZT15, 30 min recording", "result": "2626±341"}, {"measurement": "effect on spontaneous LMA (in words)", "setting": "Male Wistar rats", "result": "dose-dependently reduced spontaneous LMA"}, {"measurement": "free fraction", "setting": "[1]", "result": 1.3, "unit": "%"}, {"measurement": "stability in plasma", "setting": "[2]; 1 h", "result": 95, "unit": "%"}, {"measurement": "stability in plasma", "setting": "[2]; 4 h", "result": 93, "unit": "%"}, {"measurement": "stability in plasma", "setting": "Stability in rat plasma; 1 h", "result": 104, "unit": "%"}, {"measurement": "stability in plasma", "setting": "Stability in rat plasma; 4 h", "result": 110, "unit": "%"}, {"measurement": "Fu (fraction unbound / free fraction)", "setting": "[3]", "result": 0.8, "unit": "%"}, {"measurement": "CL", "setting": "[4]; i.v.", "result": 5.40, "unit": "mL/min/kg"}, {"measurement": "Vss", "setting": "[4]; i.v.", "result": 0.57, "unit": "L/kg"}, {"measurement": "AUC/Dose", "setting": "[4]; [5]", "result": 3118.90, "unit": "ng/h/mL"}, {"measurement": "T1/2 (terminal half-life)", "setting": "[4]; [5]", "result": 1.21, "unit": "h"}, {"measurement": "Tmax", "setting": "[4]; [5]", "result": 0.00, "unit": "h"}, {"measurement": "Cmax/Dose", "setting": "[4]; i.v., dose almorexant 2.40, SB-334867 5.18, SB-408124 12.10 mg/kg", "result": 1937.40, "unit": "ng/mL"}, {"measurement": "F (bioavailability)", "setting": "[4]; p.o.", "result": 45.70, "unit": "%"}, {"measurement": "AUC/Dose", "setting": "[4]; [6]", "result": 1423.50, "unit": "ng/h/mL"}, {"measurement": "T1/2 (terminal half-life)", "setting": "[4]; [6]", "result": 3.10, "unit": "h"}, {"measurement": "Tmax", "setting": "[4]; [6]", "result": 1.50, "unit": "h"}, {"measurement": "Cmax/Dose", "setting": "[4]; p.o., dose almorexant 6.35, SB-334867 8.75, SB-408124 18.16 mg/kg", "result": 331.10, "unit": "ng/mL"}, {"measurement": "Vss (in words)", "setting": "[4]; rat", "result": "medium"}, {"measurement": "oral bioavailability (in words)", "setting": "[4]; rat", "result": "medium"}, {"measurement": "systemic plasma clearance (in words)", "setting": "[4]; rat", "result": "low"}]}, {"smiles": "CNC(=O)[C@@H](c1ccccc1)N1CCc2cc(OC)c(OC)cc2[C@@H]1CCc1ccc(C(F)(F)F)cc1", "note": "[almorexant, (2R)-2-[(1S)-6,7-Dimethoxy-1-[2-(4-trifluoromethyl-phenyl)-ethyl]-3,4-dihydro-1H-isoquinolin-2-yl]-N-methyl-2-phenyl-acetamide]", "values": [{"measurement": "effect on spontaneous LMA (in words)", "setting": "Male Wistar rats", "result": "dose-dependently reduced LMA"}, {"measurement": "fraction unbound", "setting": "[1]; human, plasma", "result": "< 0.037"}, {"measurement": "stability in plasma", "setting": "[2]; 2 h", "result": 90.0, "unit": "%"}, {"measurement": "stability in plasma", "setting": "Stability in rat plasma; 2 h", "result": 95.0, "unit": "%"}, {"measurement": "fraction unbound", "setting": "[3]; rat, plasma", "result": "< 0.087"}, {"measurement": "AUC/Dose", "setting": "[4]; Wistar, rat, in vivo, iv", "result": 193.70, "unit": "ng/h/mL"}, {"measurement": "Tmax", "setting": "[4]; Wistar, rat, in vivo, iv", "result": 0, "unit": "h"}, {"measurement": "Vd", "setting": "[4]; Wistar, rat, in vivo, iv", "result": 9.45, "unit": "L/kg"}, {"measurement": "clearance", "setting": "[4]; Wistar, rat, in vivo, iv", "result": 87.1, "unit": "mL/min/kg"}, {"measurement": "half-life", "setting": "[4]; Wistar, rat, in vivo, iv", "result": 2.58, "unit": "h"}, {"measurement": "Cmax/Dose", "setting": "[4]; Wistar, rat, in vivo, iv, 12.1 mg/kg", "result": 238.20, "unit": "ng/mL"}, {"measurement": "AUC/Dose", "setting": "[4]; Wistar, rat, in vivo, po", "result": 28.00, "unit": "ng/h/mL"}, {"measurement": "Tmax", "setting": "[4]; Wistar, rat, in vivo, po", "result": 0.5, "unit": "h"}, {"measurement": "bioavailability", "setting": "[4]; Wistar, rat, in vivo, po", "result": 14.4, "unit": "%"}, {"measurement": "half-life", "setting": "[4]; Wistar, rat, in vivo, po", "result": 1.29, "unit": "h"}, {"measurement": "Cmax/Dose", "setting": "[4]; Wistar, rat, in vivo, po, 18.16 mg/kg", "result": 12.90, "unit": "ng/mL"}, {"measurement": "Vss (in words)", "setting": "[4]; rat, in vivo", "result": "high"}, {"measurement": "systemic plasma clearance (in words)", "setting": "[4]; rat, in vivo", "result": "high"}, {"measurement": "oral bioavailability (in words)", "setting": "[4]; rat, in vivo, po", "result": "low"}]}]}
